What was measured:
human PPAR α = target: T1, human PPAR α (Homo sapiens, UniProt Q07869); assay: Luciferase assay using human PPAR α (PPAR α agonistic activity); assay type: cell-based; conditions: compound 10 μM; CV-1 cells with Gal4-human PPAR α LBD chimera and luciferase reporter; luciferase activity of carbacyclin (10 μM) defined as 1.0
T1 construct: expressed in transfected cells; host or cells: CV-1 cells
T1 sequence (Q07869 167-468): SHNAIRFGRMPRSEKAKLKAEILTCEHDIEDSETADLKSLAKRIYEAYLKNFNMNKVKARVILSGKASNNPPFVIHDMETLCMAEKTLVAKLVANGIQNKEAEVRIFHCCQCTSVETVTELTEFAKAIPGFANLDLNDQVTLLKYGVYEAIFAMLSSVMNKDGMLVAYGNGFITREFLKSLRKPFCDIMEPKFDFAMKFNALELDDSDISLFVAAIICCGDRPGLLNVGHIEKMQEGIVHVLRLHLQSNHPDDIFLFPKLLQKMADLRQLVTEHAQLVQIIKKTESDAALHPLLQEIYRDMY

human PPAR γ = target: T2, human PPAR γ (Homo sapiens, UniProt P37231); assay: Luciferase assay using human PPAR γ (PPAR γ agonistic activity); assay type: cell-based; conditions: compound 10 μM; CV-1 cells with Gal4-human PPAR γ LBD chimera and luciferase reporter; luciferase activity of troglitazone (10 μM) defined as 1.0
T2 construct: expressed in transfected cells; host or cells: CV-1 cells
T2 sequence (P37231 204-505): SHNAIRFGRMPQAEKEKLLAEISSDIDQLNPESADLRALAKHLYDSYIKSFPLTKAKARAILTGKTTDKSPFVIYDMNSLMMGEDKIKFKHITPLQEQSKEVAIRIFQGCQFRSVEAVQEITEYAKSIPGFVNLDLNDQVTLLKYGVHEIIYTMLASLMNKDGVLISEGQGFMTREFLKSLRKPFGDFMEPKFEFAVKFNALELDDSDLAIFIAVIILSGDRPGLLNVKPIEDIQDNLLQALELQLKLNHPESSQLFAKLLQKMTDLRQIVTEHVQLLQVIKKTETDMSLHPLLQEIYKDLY

O=C(O)CCCCC1=CCCc2c(OCc3ccc4ccccc4n3)cccc21 [comprative compound]
Relative Activity to a positive control compound (carbacyclin = 1) (human PPAR α): 0.01 | Relative Activity to a positive control compound (troglitazone = 1) (human PPAR γ): 0.004
